Measured values reported in patent publication US7553505B2, “Health care product containing isoflavone aglycones and method of producing the same” (The Hong Kong University of Science and Technology, priority 2006, dated 2009).

Experiments:
[1] = Solubility in alcohol against temperature (FIG. 2); format: physicochemical; conditions: within the specific temperature range of FIG. 2
Text: FIG. 2 is a diagram showing the solubilities of genistein and daidzein in methanol against temperature.
The first step of the method as described above is extraction. This process of grinding starting materials disrupts their tissue structure to enable the isoflavone fractions more easily extracted by the organic solvent. Then, an organic solvent, preferably ethanol, is used to recover isoflavones based on the high solubilities and steadiness of isoflavones in the selected solvents. […] Ethanol (edible alcohol) is preferred in this invention to ensure the isoflavone product will not endanger human health even with the remains of solvent. The extraction is carried out at a temperature ranging from 40 to 90° C. for 2-24 hrs, with the material ratio (volume:weight) of solvent to flour between 1:1 and 10:1 (mL:g).

[2] = Mitchell et al., 1998; Setchell et al., 2003; cited from earlier work

O=c1c(-c2ccc(O)cc2)coc2cc(O)cc(O)c12 [genistein, Genistein]
solubility in alcohol including methanol and ethanol versus temperature [1]: increase evidently with increasing temperature
biological activities among the twelve soy isoflavones [2]: highest biological activities
